Patent US7157453B2, “Urea substituted imidazoquinolines” (3M Innovation Properties Company, priority 1999, dated 2007)
Where a name gives a salt, the structure may show the parent alone.

Key:
interferon (α) = assay: Cytokine Induction in Human Cells: interferon (α) by ELISA; format: cell-based; details: PBMC; human PBMCs, incubated 18 to 24 hours, lowest concentration found to induce interferon
From the text: (§1) An in vitro human blood cell system was used to assess cytokine induction by compounds of the invention. Activity is based on the measurement of interferon and tumor necrosis factor (α) (IFN and TNF, respectively) secreted into culture media as described by Testerman et. al. In “Cytokine Induction by the Immunomodulators Imiquimod and S-27609”, Journal of Leukocyte Biology, 58, 365–372 (September, 1995).
(§2) Whole blood is collected by venipuncture into EDTA vacutainer tubes from healthy human donors. Peripheral blood mononuclear cells (PBMCs) are separated from whole blood by density gradient centrifugation using Histopaque®-1077 (Sigma Chemicals, St. Louis, Mo.). The PBMCs are suspended at 3–4×10^6 cells/mL in RPMI 1640 medium containing 10% fetal bovine serum, 2 mM L-glutamine and 1% penicillin/streptomycin solution (RPMI complete). The PBMC suspension is added to 48 well flat bottom sterile tissue culture plates (Costar, Cambridge, Mass. or Becton Dickinson Labware, Lincoln Park, N.J.) containing an equal volume of RPMI complete media containing test compound.
(§3) The compounds are solubilized in dimethyl sulfoxide (DMSO). The DMSO concentration should not exceed a final concentration of 1% for addition to the culture wells.
(§4) The solution of test compound is added at 60 μM to the first well containing RPMI complete and serial (three fold or ten fold) dilutions are made. The PBMC suspension is then added to the wells in an equal volume, bringing the test compound concentrations to the desired range. The final concentration of PBMC suspension is 1.5–2×10^6 cells/mL. The plates are covered with sterile plastic lids, mixed gently and then incubated for 18 to 24 hours at 37° C. in a 5% carbon dioxide atmosphere.
(§5) Following incubation the plates are centrifuged for 5–10 minutes at 1000 rpm (˜200×g) at 4° C. The cell culture supernatant is removed with a sterile polypropylene pipet and transferred to sterile polypropylene tubes. Samples are maintained at −30 to −70° C. until analysis. The samples are analyzed for interferon (α) and tumor necrosis factor (α) by ELISA
Interferon (α) concentration is determined by ELISA using a Human Multi-Species kit from PBL Biomedical Laboratories, New Brunswick, N.J.
(§6) The table below lists the lowest concentration found to induce interferon and the lowest concentration found to induce tumor necrosis factor for each compound.

[1] = tested on: tumor necrosis factor (α); assay: Cytokine Induction in Human Cells: tumor necrosis factor (α) by ELISA; format: cell-based; details: PBMC; human PBMCs, incubated 18 to 24 hours, lowest concentration found to induce tumor necrosis factor
From the text: as §1, §2, §3, §4, §5
Tumor necrosis factor (α) (TNF) concentration is determined using ELISA kits available from Genzyme, Cambridge, Mass.; R&D Systems, Minneapolis, Minn.; or Pharmingen, San Diego, Calif.
as §6

| SMILES | minimal effective concentration (interferon (α)) | minimal effective concentration [1] |
| --- | --- | --- |
| CCCCc1nc2c(N)nc3ccccc3c2n1CCNC(=O)NC12CC3CC(CC(C3)C1)C2 [Example 53] | > 10 µM | 10 µM |
| COCCc1nc2c(N)nc3ccccc3c2n1CCCCNC(=O)Nc1ccccc1Cl [Example 112] | 0.0001 µM | 0.1 µM |
| CC(C)c1ccc(NC(=O)NCCCCn2cnc3c(N)nc4ccccc4c32)cc1 [Example 27] | > 30 µM | > 30 µM |
| CCCCc1nc2c(N)nc3ccccc3c2n1CCNC(=O)Nc1ccc(Oc2ccccc2)cc1 [Example 54] | > 10 µM | 10 µM |
| CCCCc1nc2c(N)nc3ccccc3c2n1CCCCNC(=O)NCCC [Example 71] | 0.001 µM | 1 µM |
| COC(=O)c1ccccc1NC(=O)NCCCCn1cnc2c(N)nc3ccccc3c21 [Example 43] | > 30 µM | > 30 µM |
| CCc1ccccc1NC(=O)NCCCCn1cnc2c(N)nc3ccccc3c21 [Example 40] | 0.37 µM | 3.33 µM |
| COCCc1nc2c(N)nc3ccccc3c2n1CCCCCCCCNC(=O)Nc1ccccc1 [Example 145, N-{8-[4-amino-2-(2-methoxyethyl)-1H-imidazo[4,5-c]quinolin-1-yl]octyl}-N′-phenylurea] | 0.01 µM | 0.04 µM |
| CCCNC(=S)NCCCCn1c(CCOC)nc2c(N)nc3ccccc3c21 [Example 127] | 0.0001 µM | 1 µM |
| Nc1nc2ccccc2c2c1ncn2CCCCNC(=O)Nc1ccc(Br)cc1 [Example 42] | > 30 µM | > 30 µM |
| COCCc1nc2c(N)nc3ccccc3c2n1CCCCNC(=O)Nc1cccc(C)c1 [Example 106] | 0.0001 µM | 1 µM |
| CCCCc1nc2c(N)nc3ccccc3c2n1CCCCNC(=O)N[C@@H](C)c1ccccc1 [Example 82] | 0.01 µM | 0.1 µM |
| CC(C)c1cccc(C(C)C)c1NC(=O)NCCCCn1cnc2c(N)nc3ccccc3c21 [Example 24] | > 30 µM | > 30 µM |
| Cc1cc(C)c(NC(=O)NCCCCn2cnc3c(N)nc4ccccc4c32)cc1C [Example 38] | > 30 µM | > 30 µM |
| CCCCCCCNC(=O)NCCCCn1cnc2c(N)nc3ccccc3c21 [Example 22] | > 30 µM | 10 µM |
| Nc1nc2ccccc2c2c1ncn2CCCCNC(=O)Nc1ccccc1[N+](=O)[O-] [Example 41] | 1.11 µM | 10 µM |
| CCCCc1nc2c(N)nc3ccccc3c2n1CCNC(=O)NS(=O)(=O)c1ccc(Cl)cc1 [Example 140] | 10 µM | > 10 µM |
| CCCCc1nc2c(N)nc3ccccc3c2n1CCCCNC(=O)NCc1cccc(C)c1 [Example 83] | 0.1 µM | 1 µM |
| CSc1ccc(NC(=O)NCCCCn2cnc3c(N)nc4ccccc4c32)cc1 [Example 47] | 3.33 µM | 10 µM |
| COCCc1nc2c(N)nc3ccccc3c2n1CCCCNC(=O)Nc1cccc(F)c1 [Example 107] | 0.0001 µM | 1 µM |
| CCCCc1nc2c(N)nc3ccccc3c2n1CCCCNC(=O)NCc1ccc(C)cc1 [Example 84] | 0.1 µM | 1 µM |
| COCCc1nc2c(N)nc3ccccc3c2n1CCCCNC(=O)N[C@@H](C)c1ccccc1 [Example 111] | 0.001 µM | 1 µM |

| SMILES | minimal effective concentration (interferon (α)) | minimal effective concentration [1] |
| --- | --- | --- |
| CCCCCc1nc2c(N)nc3c(c2n1CCCCNC(=O)N1CCOCC1)CCCC3 [Example 172, N-[4-(4-amino-2-pentyl-6,7,8,9-tetrahydro-1H-imidazo[4,5-c]quinolin-1-yl)butyl]morpholine-4-carboxamide hydrochloride] | 0.01 µM | 0.37 µM |
| CSc1cccc(NC(=O)NCCCCn2cnc3c(N)nc4ccccc4c32)c1 [Example 49] | 3.33 µM | 3.33 µM |
| COCCc1nc2c(N)nc3ccccc3c2n1CCCCNC(=O)Nc1cccc(C#N)c1 [Example 108] | 0.0001 µM | 0.0001 µM |
| COCCc1nc2c(N)nc3ccccc3c2n1CCCCNC(=O)Nc1cccc([N+](=O)[O-])c1 [Example 114] | 0.0001 µM | 0.01 µM |
| CCCCCCCCNC(=O)NCCCCn1c(CCCC)nc2c(N)nc3ccccc3c21 [Example 87] | 1 µM | > 10 µM |
| Nc1nc2ccccc2c2c1ncn2CCCCNC(=O)Nc1ccc(Oc2ccccc2)cc1 [Example 33] | > 30 µM | > 30 µM |
| CC(C)(C)CC(C)(C)NC(=O)NCCCCn1cnc2c(N)nc3ccccc3c21 [Example 32] | 10 µM | 10 µM |
| Nc1nc2ccccc2c2c1ncn2CCCCNC(=O)Nc1ccccc1 [Example 16] | 1.11 µM | 10 µM |
| CCCCOc1ccc(NC(=O)NCCCCn2cnc3c(N)nc4ccccc4c32)cc1 [Example 21] | > 30 µM | > 30 µM |
| CCCCc1nc2c(N)nc3c(c2n1CCCCNC(=O)NS(=O)(=O)c1ccccc1)CCCC3 [Example 137] | 1 µM | 10 µM |
| CCCNC(=O)NCCCCn1cnc2c(N)nc3ccccc3c21 [Example 26] | 10 µM | > 30 µM |
| CCCCOC(=O)c1ccc(NC(=O)NCCCCn2cnc3c(N)nc4ccccc4c32)cc1 [Example 50] | > 30 µM | > 30 µM |
| COCCc1nc2c(N)nc3ccccc3c2n1CCCCNC(=O)Nc1cccc(C(F)(F)F)c1 [Example 116] | 0.0001 µM | 1 µM |
| Nc1nc2ccccc2c2c1ncn2CCCCNC(=O)Nc1cc(C(F)(F)F)cc(C(F)(F)F)c1 [Example 23] | > 30 µM | 10 µM |
| CCCCNC(=O)NCCCCn1c(CCOC)nc2c(N)nc3ccccc3c21 [Example 103] | 0.0001 µM | 0.1 µM |
| COCCc1nc2c(N)nc3ccccc3c2n1CCCCNC(=O)Nc1ccc(C#N)cc1 [Example 109] | 0.0001 µM | 0.1 µM |
| COCCc1nc2c(N)nc3c(c2n1CCCCNC(=O)N(C)C)CCCC3 [Example 134] | 0.001 µM | 1 µM |
| COCCc1nc2c(N)nc3ccccc3c2n1CCCCNC(=O)N[C@H](C)c1ccccc1 [Example 110] | 0.001 µM | 1 µM |
| COCCc1nc2c(N)nc3ccccc3c2n1CCCCNC(=O)N1CCCC1 [Example 122] | 0.001 µM | 1 µM |
| COCCc1nc2c(N)nc3ccccc3c2n1CCCCNC(=O)Nc1ccccc1 [Example 104] | 0.0001 µM | 1 µM |
| COCCc1nc2c(N)nc3c(c2n1CCCCNC(=O)Nc1ccccc1)CCCC3 [Example 136] | 0.0001 µM | 1 µM |
